For test [1], the target named is T1, SHP-2 (SH2-SH2) (Homo sapiens, UniProt Q06124).
T1 construct: OPPF catalogue number 3911; aa 2–219, EC = 23,045 M^−1 cm^−1; His-tag; host or cells: E. coli BL21(DE3)pLysS
T1 sequence (Q06124 2-219): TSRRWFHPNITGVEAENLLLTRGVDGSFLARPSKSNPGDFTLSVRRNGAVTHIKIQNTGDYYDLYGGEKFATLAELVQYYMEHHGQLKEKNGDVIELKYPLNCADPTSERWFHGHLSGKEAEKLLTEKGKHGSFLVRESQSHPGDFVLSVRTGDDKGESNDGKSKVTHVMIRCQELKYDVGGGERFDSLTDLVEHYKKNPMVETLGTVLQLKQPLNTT
Put plainly: SPR binding of SHP-2 tandem (N+C) SH2 domains to immobilised phosphopeptides. Conditions: 37°C, SHP2 N+C SH2, equilibrium binding fit shown in Figure 6D. The text has this: Biotinylated EAT-2 was produced by expression of full length human EAT-2 with a C-terminal BirA tag ([…]) in the E coli expression vector pTrcHisA. Constructs encoding the 6xHis-tagged tandem SH2 domains plus the SH3 domains of PLCγ1 (Swiss-Prot: P19174, aa 536–863) and PLCγ2 (Swiss-Prot: P16885, aa 519–838) were generated in pTrcHisA (5′ joining sequence with BglII site underlined: gag atc tcc translates as EIS). The molecular weight (MW) and theoretical extinction coefficients (EC) of recombinant PLCγ1 and PLCγ2 SH2-SH2-SH3 domains were PLCγ1; MW = 42531, EC = 63,830 M^−1 cm^−1 and PLCγ2; MW = 42415, EC = 67,270 M^−1 cm^−1.
Measurements of protein-protein affinity were performed on BIAcore 3000 and T200 systems using CM5 or biotin capture chips (GE Healthcare Ltd, UK). Streptavidin was coupled to CM5 sensor chips using standard NHS/EDC chemical linkage, followed by immobilization of biotinylated peptides. […] Equilibrium binding coefficients and dissociation and association rates were calculated using BIAevaluation and/or GraphPad Prism 5.4 software.
Binding of inhibitory tyrosine phosphatases through their SH2 domains to ITIMs is enhanced by phosphorylation of two tyrosine motifs which are appropriately spaced. […] We measured binding of SHP-2 tandem SH2 domains (recombinant SHP-1 SH2 domains were unstable in solution) to tandem ITSMs in CD244 (Figure 6B and Table 4). […]

A short description of test [2]: Pull-down with phosphorylated CD244 ITSM1 from NK cell lysates, LC-MS/MS. The format is binding. To be noted: human NK cell lysates; compared with control phosphopeptide SHIP-1 Y865. Here is the method: (§1) For pull-down of associated proteins, streptavidin Sepharose (GE Healthcare) was pre-coated with saturating amounts of peptide or EAT-2. NK92 cells (4×10^8) were treated with 500 μM pervanadate for 15 minutes, then lysed in PBS, 1% Triton X-100, 1 mM sodium orthovanadate in the presence of mammalian protease inhibitor solution (Sigma). Lysates were pre-cleared by centrifugation, followed by incubation with streptavidin Sepharose. Peptide or EAT-2-coated streptavidin beads were incubated with NK92 lysates for 2 hours at 4°C with rotation. Beads were washed once with 15 ml ice cold PBS/1% (v/v) Triton X-100. Bound protein was eluted using 100 mM glycine-HCl pH 2.5.
Protein samples were prepared for mass spectrometry as described previously. Briefly, eluted proteins were spun onto the membranes of Vivacon 500 filters (10,000 MWCO – Sartorius). Membranes were washed once with PBS then proteins were denatured with 8 M urea, reduced with 10 mM DTT in 25 mM ammonium bicarbonate buffer, followed by alkylation with 50 mM iodoacetamide. Proteins were then digested overnight with trypsin. Tryptic peptides were then eluted from the membrane and analyzed on an Ultimate 3000 HPLC-coupled Orbitrap XL mass spectrometer. Proteins were identified by liquid chromatography-coupled tandem mass-spectrometry (LC-MS/MS). Raw data files were converted to mzXML format using ReADW (v. 4.2.1) and submitted to the Central Proteomics Facilities Pipeline for database comparison and peptide identification. Searching against the International Protein Index (IPI) human protein sequence database for protein identification, protein and peptide hits were statistically validated by applying a 1% false discovery rate (FDR) by searching against a concatenated target/decoy database. Datasets were searched with variable peptide modifications for phosphotyrosine, phosphoserine, phosphothreonine, oxidation of methionine and deamination.
Protein identification data were exported into ProteinCenter (v3.8.3013 – Thermo Fisher) for filtering and annotation. Results were filtered to remove any proteins with less than 3 unique peptides, less than 10 percent sequence coverage, or median protein probability scores less than 0.5. To establish sample specificity, any protein with at least 10-fold greater sequence coverage in one sample compared with the other was considered to be specific for that sample.
Similarly, differences in specificity of inhibitory SH2 domain containing proteins for ITSMs are relevant to understanding mechanisms of inhibition by ITSMs. We focused on CD244 ITSMs to establish general paradigms.

Test [3] has as its system NK92 cells. Put plainly: IFNγ production by NK92 cells. To be noted: TJW, unpublished. The format is cell-based, human.
Test [4] relates to EAT-2. Conditions: ref [30]; cited from earlier work. An excerpt:
The specificities of their SH2 domains overlap, introducing the concept of competition between them for ITSMs in cells where they are co-expressed, including NK cells.

Test [5] in a line: Pull-down with EAT-2 Y127 phosphopeptide from NK92 lysates, LC-MS/MS. The format is binding, human. To be noted: NK92 cell lysates. The protocol:
as §1
Protein samples were prepared for mass spectrometry as described previously. Briefly, eluted proteins were spun onto the membranes of Vivacon 500 filters (10,000 MWCO – Sartorius). Membranes were washed once with PBS then proteins were denatured with 8 M urea, reduced with 10 mM DTT in 25 mM ammonium bicarbonate buffer, followed by alkylation with 50 mM iodoacetamide. Proteins were then digested overnight with trypsin. Tryptic peptides were then eluted from the membrane and analyzed on an Ultimate 3000 HPLC-coupled Orbitrap XL mass spectrometer. […] Raw data files were converted to mzXML format using ReADW (v. 4.2.1) and submitted to the Central Proteomics Facilities Pipeline for database comparison and peptide identification. […]

Non-standard residues stand in square brackets, D forms with d. Residues, ends and D or L forms follow the SMILES beside them. *: point of attachment. Biotin = O=C1N[C@H]2[C@H](CS[C@H]2CCCCC(=O)*)N1; pY = N[C@@H](Cc1ccc(OP(=O)(O)O)cc1)C(=O)O

The term Kd denotes the constant that tells how readily two partners part at equilibrium. A lower Kd goes with tighter binding.

For the compound `CC[C@H](C)[C@H](NC(=O)[C@H](CCSC)NC(=O)[C@H](CO)NC(=O)[C@H](Cc1ccc(OP(=O)(O)O)cc1)NC(=O)[C@@H](NC(=O)[C@@H](NC(=O)[C@H](CO)NC(=O)CNC(=O)CNC(=O)CNC(=O)[C@@H]1CCCN1C(=O)[C@H](Cc1ccccc1)NC(=O)[C@@H](NC(=O)[C@H](CCC(N)=O)NC(=O)[C@H](CCC(=O)O)NC(=O)[C@H](CCC(N)=O)NC(=O)[C@H](CCC(=O)O)NC(=O)[C@H](Cc1c[nH]cn1)NC(=O)[C@H](CC(N)=O)NC(=O)[C@H](CCCNC(=N)N)NC(=O)[C@H](CCCNC(=N)N)NC(=O)[C@@H](NC(=O)[C@H](CCCCN)NC(=O)[C@H](CC(C)C)NC(=O)[C@H](CC(=O)O)NC(=O)[C@H](CCCCN)NC(=O)[C@@H](NC(=O)[C@H](CC(=O)O)NC(=O)[C@H](CCC(=O)O)NC(=O)[C@H](Cc1ccc(OP(=O)(O)O)cc1)NC(=O)[C@@H](NC(=O)[C@@H](NC(=O)[C@H](CC(C)C)NC(=O)[C@H](Cc1ccccc1)NC(=O)[C@H](CCC(=O)O)NC(=O)CCCC[C@@H]1SC[C@@H]2NC(=O)N[C@@H]21)[C@@H](C)O)[C@@H](C)CC)C(C)C)[C@@H](C)O)[C@@H](C)O)[C@@H](C)O)[C@@H](C)CC)C(=O)N[C@@H](CCC(N)=O)C(=O)N[C@@H](CO)C(=O)O` [CD244 ITSM1+ITSM2] (Biotin-EFLTI[pY]EDVKDLKTRRNHEQEQTFPGGGSTI[pY]SMIQS-OH), the Kd in test [1] is 2400 nM. PLCγ1: phospholipase C gamma-1: in test [2], the “pull-down by CD244 ITSM1” value was “pulled down by the ITSM peptide”. The “effect on IFNγ production by NK92 cells” value in test [3] is “inhibitory”.

As for “ADYDTI [mouse CRACC tyrosine motif in the equivalent position to human CRACC ITSM1]”, the “binding of EAT-2 to mouse CRACC motif” value in test [4] is “did not bind EAT-2”. Consider Fyn: Src-family kinase, for which the “pull-down by EAT-2 Y127” value in test [5] is on record as “Notably absent from this list”.

Source of the values: paper PMC3958483, “Fine Specificity and Molecular Competition in SLAM Family Receptor Signalling” (PLoS ONE, 2014).
